Laboratory results: patent US12391659B2, “Benzothiazole and related compounds” (Spinogenix, Inc., priority 2017, dated 2025)

Tested on: primary mouse cortical neurons
Assay: In vitro spinogenesis: synaptophysin (P38) puncta / synapse count in primary mouse cortical neurons
Type: cell-based
Settings: for number of synaptic puncta (P38-immunopositive) compared to the vehicle control: 5 μM, 24 hours of treatment starting at DIV 15, DIV 16 neurons; for increase in the number of synapses compared to the control: 1 μM, 24 hrs of treatment starting at DIV 15, DIV 16 neurons
From the text: Compounds of the current invention bind to the actin bundling protein, fascin, and prevent the formation of long, stiff actin cytoskeleton, thereby promoting dendritic spine formation. (see, Sedeh, R. S. et al. J. Mol. Biol. 400, 589-604 (2010); Chen, L. et al. Nature 464, 1062-1066 (2010); Jansen, S. et al. J. Biol. Chem. 286, 30087-30096 (2011); Yang, S. et al. J. Biol. Chem. 288, 274-284 (2013); Zheng, S. et al. J. Med. Chem. 57, 6653-6667 (2014)). […] Specifically, the Benzothiazole-IIIA and Benzothiazole-IIIB compounds of the instant invention, as well as the Benzothiazole-I compound as described in International application number PCT/US2017/012139, were used in this study (FIG. 1).
Primary mouse cortical neurons were treated with 5 μM of Benzothiazole-I, Benzothiazole-IIIA, or Benzothiazole-IIIB at DIV 15. As a control, primary mouse cortical neurons were treated with the vehicle only (10% DMSO, 90% phosphate buffered saline (PBS)). After 24 hours, the DIV 16 neurons were fixed, immunostained using the presynaptic vesicle protein synaptophysin (P38), counterstained with the nuclear dye DAPI (4′,6-diamidino-2-phenylindole,), and counted. Immunolabeled neurons were imaged on a Leica confocal microscope. The numbers of P38-immunopositive puncta were analyzed using FIJI with the Squash plugin (FIG. 2).
In a similar experiment, the primary mouse cortical neurons were treated with 1 μM of Benzothiazole-I or Benzothiazole-IIIB at DIV 15, using the same DMSO/PBS buffer solution described above as the control vehicle. After 24 hours, the DIV 16 neurons were fixed, immunolabeled with synaptophysin, stained with DAPI, and counted as described above.

Row | SMILES | number of synaptic puncta (P38-immunopositive) compared to the vehicle control | increase in the number of synapses compared to the control
1 | OCCOCCOCCOCCOCCOCCOc1ccc(-c2nc3ccccc3s2)cc1 [Benzothiazole-IIIA] | increase | –
2 | OCCOCCOCCOCCOc1ccc(-c2nc3ccccc3s2)cc1 [Benzothiazole-IIIB, 2-(2-(2-(2-(4-(benzo[d]thiazol-2-yl)phenoxy)ethoxy)ethoxy)ethoxy)ethan-1-ol] | increase | ~100%
3 | Cc1ccc2nc(-c3ccc(NCCOCCOCCOCCO)cc3)sc2c1 [Benzothiazole-I, ((4-(6-methylbenzo[d]thiazol-2-yl)phenyl)amino)-(CH2CH2O)4H, reference compound] | increase | ~100%
